Test results published in article PMC9403976, “Elucidating the path to Plasmodium prolyl-tRNA synthetase inhibitors that overcome halofuginone resistance” (Nature Communications, 2022).
Where “and” joins values, the source holds several entries; their conditions need not be identical. Equal values may be shown once. Read-outs that look alike come from different tables or passages of the source.

Columns and labels:
P. falciparum Dd2-2D4 = assay: P. falciparum asexual blood stage (ABS) growth assay, SYBR Green, 72 h, wild-type parasites; type: cell-based, Plasmodium falciparum; details: Plasmodium falciparum, DD2; SI Fig 16b; values on -log scale; read-out: ABS - Dd2-2D4 (converted)
[1] = tested on: halofuginone-induced P. falciparum (elevated proline homeostasis); assay: P. falciparum ABS growth assay, SYBR Green, 72 h, halofuginone-induced parasites; type: cell-based, Plasmodium falciparum
How it was run: (§1)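 SYBR Green 1 fluorescence after 72 h quantified growth of erythrocytic-stage Dd2 lines seeded at 1% parasitemia and 1% hematocrit. Compounds were tested in triplicate dose-response format in RPMI with 0.5% Albumax, referenced to 10 μM dihydroartemisinin and untreated wells.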

[2] = tested on: HFGR-I P. falciparum (elevated proline homeostasis and PfcProRS^L482H); assay: P. falciparum ABS growth assay, SYBR Green, 72 h, HFGR-I parasites; type: cell-based, Plasmodium falciparum
How it was run: as §1

PfcProRS = biological target: T1, PfcProRS (Plasmodium falciparum, UniProt Q8I5R7); type: binding; details: single replicates
T1 construct: made in house; host or cells: E. coli SoluBL-21
T1 sequence (Q8I5R7 249-746): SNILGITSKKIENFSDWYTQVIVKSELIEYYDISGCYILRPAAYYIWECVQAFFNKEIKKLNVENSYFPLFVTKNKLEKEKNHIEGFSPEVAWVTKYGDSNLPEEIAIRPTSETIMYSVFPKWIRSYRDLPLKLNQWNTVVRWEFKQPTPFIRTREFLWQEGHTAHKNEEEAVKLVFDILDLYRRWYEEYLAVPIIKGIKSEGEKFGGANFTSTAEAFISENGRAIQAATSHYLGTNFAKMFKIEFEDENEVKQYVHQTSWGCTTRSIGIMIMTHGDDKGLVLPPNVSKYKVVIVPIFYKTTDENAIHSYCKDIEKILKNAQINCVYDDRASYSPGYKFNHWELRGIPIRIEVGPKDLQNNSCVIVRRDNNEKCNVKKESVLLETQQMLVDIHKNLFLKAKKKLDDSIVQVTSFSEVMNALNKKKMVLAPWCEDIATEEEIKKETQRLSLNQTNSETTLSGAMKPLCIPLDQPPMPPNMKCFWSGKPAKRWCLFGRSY

HsProRS = HsProRS (Homo sapiens, UniProt P07814); assay: TR-FRET ligand displacement assay with tracer MAT379 (CoraFluor-1-Halo and anti-His6 antibody formats); type: binding; parameters: made in house; host or cells: E. coli SoluBL-21; details: for TR-FRET dose-response, normalized signal (SI Fig 11): individual replicates
Sequence of HsProRS (P07814 996-1512): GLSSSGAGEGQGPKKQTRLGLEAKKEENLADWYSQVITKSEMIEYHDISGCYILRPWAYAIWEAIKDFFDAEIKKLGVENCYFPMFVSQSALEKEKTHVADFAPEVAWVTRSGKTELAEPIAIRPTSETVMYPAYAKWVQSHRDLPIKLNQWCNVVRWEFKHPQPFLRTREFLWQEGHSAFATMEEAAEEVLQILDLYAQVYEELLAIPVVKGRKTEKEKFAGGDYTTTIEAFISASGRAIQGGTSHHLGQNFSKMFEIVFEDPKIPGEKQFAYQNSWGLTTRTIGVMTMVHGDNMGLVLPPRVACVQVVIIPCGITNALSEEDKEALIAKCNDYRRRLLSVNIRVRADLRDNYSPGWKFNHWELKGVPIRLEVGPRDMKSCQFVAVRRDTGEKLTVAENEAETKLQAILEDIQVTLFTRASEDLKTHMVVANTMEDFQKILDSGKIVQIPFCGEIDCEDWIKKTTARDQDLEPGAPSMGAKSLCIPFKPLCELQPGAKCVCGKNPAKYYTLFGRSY

SMILES: O=C(NC1Cc2ccccc2C1)c1nccnc1NC(=O)N1CCC(CO)CC1 [compound 11]
- EC50 (P. falciparum Dd2-2D4): 711 nM
- dose-response value, Replicates 1-3 (SI Fig 2e) ([1]; Log[inhibitor] (M) -5.408): 12
- EC50 ([1]; Plasmodium falciparum, DD2, read-out: Dd2 (EC50 [nM]) halofuginone-induced mean): 2470 nM
- dose-response value, Replicates 1-3 (SI Fig 2f) ([2]; Log[inhibitor] (M) -5.000): 0
- EC50 ([2]; Plasmodium falciparum, DD2, read-out: Dd2 (EC50 [nM]) HFGR1 mean): 1910 nM
- dose-response signal (normalized), SI Fig 8 (PfcProRS; Log[inhibitor] (M) -5.000): 5.60E-02 and 7.55E-02 and 4.27E-02
- dose-response signal (normalized), SI Fig 8 (PfcProRS; Log[inhibitor] (M) -5.301): 7.92E-02 and 2.41E-02 and 4.88E-02
- dose-response signal (normalized), SI Fig 8 (PfcProRS; Log[inhibitor] (M) -5.601): 9.80E-02 and 1.87E-03 and 7.44E-02
- dose-response signal (normalized), SI Fig 8 (PfcProRS; Log[inhibitor] (M) -5.904): 2.50E-01 and 1.37E-01 and 2.03E-01
- dose-response signal (normalized), SI Fig 8 (PfcProRS; Log[inhibitor] (M) -6.208): 3.69E-01 and 3.33E-01 and 3.17E-01
- dose-response signal (normalized), SI Fig 8 (PfcProRS; Log[inhibitor] (M) -6.509): 6.08E-01 and 6.11E-01 and 6.37E-01
- dose-response signal (normalized), SI Fig 8 (PfcProRS; Log[inhibitor] (M) -6.796): 7.29E-01 and 7.94E-01 and 7.90E-01
- dose-response signal (normalized), SI Fig 8 (PfcProRS; Log[inhibitor] (M) -7.108): 8.18E-01 and 8.62E-01 and 9.40E-01
- dose-response signal (normalized), SI Fig 8 (PfcProRS; Log[inhibitor] (M) -7.409): 1.03E+00 and 1.01E+00 and 8.87E-01
- dose-response signal (normalized), SI Fig 8 (PfcProRS; Log[inhibitor] (M) -7.710): 1.08E+00 and 9.42E-01 and 9.86E-01
- dose-response signal (normalized), SI Fig 8 (PfcProRS; Log[inhibitor] (M) -8.000): 1.04E+00 and 9.91E-01 and 1.06E+00
- dose-response signal (normalized), SI Fig 8 (PfcProRS; Log[inhibitor] (M) -8.301): 1.09E+00 and 1.02E+00 and 1.00E+00
- dose-response signal (normalized), SI Fig 8 (PfcProRS; Log[inhibitor] (M) -8.602): 1.07E+00 and 9.31E-01 and 1.05E+00
- dose-response signal (normalized), SI Fig 8 (PfcProRS; Log[inhibitor] (M) -9.000): 8.46E-01 and 1.03E+00 and 9.88E-01
- dose-response signal (normalized), SI Fig 8 (PfcProRS; Log[inhibitor] (M) -9.301): 1.09E+00 and 1.13E+00 and 1.15E+00
- Kd (HsProRS; HsProRS (KD [nM]) + 100 μM proline mean, + 100 μM proline): 8.42 nM
- Kd (HsProRS; HsProRS (KD [nM]) mean, no added proline/ATP (-)): 265 nM
- normalized TR-FRET ligand displacement signal, dose-response replicates (SI Fig 6) (HsProRS; Log[inhibitor] (M) -5.000): 7.29E-02 and 8.36E-02 and 3.81E-02
- TR-FRET dose-response, normalized signal (SI Fig 11) (HsProRS; Log[inhibitor] (M) -5.000): -1.28E-03 and -3.43E-02 and 2.65E-03
- normalized TR-FRET ligand displacement signal, dose-response replicates (SI Fig 6) (HsProRS; Log[inhibitor] (M) -5.301): 1.45E-01 and 1.02E-01 and 9.61E-02
- TR-FRET dose-response, normalized signal (SI Fig 11) (HsProRS; Log[inhibitor] (M) -5.301): 2.77E-02 and 5.85E-02 and -1.28E-02
- normalized TR-FRET ligand displacement signal, dose-response replicates (SI Fig 6) (HsProRS; Log[inhibitor] (M) -5.601): 2.34E-01 and 2.43E-01 and 2.83E-01
- TR-FRET dose-response, normalized signal (SI Fig 11) (HsProRS; Log[inhibitor] (M) -5.601): 8.35E-02 and 4.98E-02 and 9.15E-02
- normalized TR-FRET ligand displacement signal, dose-response replicates (SI Fig 6) (HsProRS; Log[inhibitor] (M) -5.904): 4.84E-01 and 4.37E-01 and 4.52E-01
- TR-FRET dose-response, normalized signal (SI Fig 11) (HsProRS; Log[inhibitor] (M) -5.904): 2.07E-01 and 2.25E-01 and 2.22E-01
- normalized TR-FRET ligand displacement signal, dose-response replicates (SI Fig 6) (HsProRS; Log[inhibitor] (M) -6.208): 6.54E-01 and 5.62E-01 and 6.80E-01
- TR-FRET dose-response, normalized signal (SI Fig 11) (HsProRS; Log[inhibitor] (M) -6.208): 3.66E-01 and 3.44E-01 and 3.52E-01
- normalized TR-FRET ligand displacement signal, dose-response replicates (SI Fig 6) (HsProRS; Log[inhibitor] (M) -6.509): 6.98E-01 and 7.35E-01 and 8.42E-01
- TR-FRET dose-response, normalized signal (SI Fig 11) (HsProRS; Log[inhibitor] (M) -6.509): 5.64E-01 and 5.20E-01 and 5.33E-01
- normalized TR-FRET ligand displacement signal, dose-response replicates (SI Fig 6) (HsProRS; Log[inhibitor] (M) -6.796): 1.06E+00 (2×) and 1.05E+00
- TR-FRET dose-response, normalized signal (SI Fig 11) (HsProRS; Log[inhibitor] (M) -6.796): 7.28E-01 and 6.74E-01 and 6.24E-01
- normalized TR-FRET ligand displacement signal, dose-response replicates (SI Fig 6) (HsProRS; Log[inhibitor] (M) -7.108): 8.92E-01 and 1.10E+00 and 9.75E-01
- TR-FRET dose-response, normalized signal (SI Fig 11) (HsProRS; Log[inhibitor] (M) -7.108): 7.19E-01 and 7.66E-01 and 7.53E-01
- normalized TR-FRET ligand displacement signal, dose-response replicates (SI Fig 6) (HsProRS; Log[inhibitor] (M) -7.409): 9.25E-01 and 9.47E-01 and 1.04E+00
- TR-FRET dose-response, normalized signal (SI Fig 11) (HsProRS; Log[inhibitor] (M) -7.409): 8.67E-01 and 8.81E-01 and 8.44E-01
- normalized TR-FRET ligand displacement signal, dose-response replicates (SI Fig 6) (HsProRS; Log[inhibitor] (M) -7.710): 9.81E-01 and 9.55E-01 and 9.75E-01
- TR-FRET dose-response, normalized signal (SI Fig 11) (HsProRS; Log[inhibitor] (M) -7.710): 9.29E-01 and 8.46E-01 and 9.70E-01
- normalized TR-FRET ligand displacement signal, dose-response replicates (SI Fig 6) (HsProRS; Log[inhibitor] (M) -8.000): 9.65E-01 and 1.05E+00 and 9.80E-01
- TR-FRET dose-response, normalized signal (SI Fig 11) (HsProRS; Log[inhibitor] (M) -8.000): 9.63E-01 and 9.74E-01 and 9.23E-01
- normalized TR-FRET ligand displacement signal, dose-response replicates (SI Fig 6) (HsProRS; Log[inhibitor] (M) -8.301): 1.00E+00 and 9.43E-01 and 1.07E+00
- TR-FRET dose-response, normalized signal (SI Fig 11) (HsProRS; Log[inhibitor] (M) -8.301): 9.20E-01 and 9.31E-01 and 8.90E-01
- normalized TR-FRET ligand displacement signal, dose-response replicates (SI Fig 6) (HsProRS; Log[inhibitor] (M) -8.602): 1.02E+00 (2×) and 9.43E-01
- TR-FRET dose-response, normalized signal (SI Fig 11) (HsProRS; Log[inhibitor] (M) -8.602): 8.99E-01 and 8.64E-01 and 8.60E-01
- normalized TR-FRET ligand displacement signal, dose-response replicates (SI Fig 6) (HsProRS; Log[inhibitor] (M) -9.000): 9.86E-01 and 1.02E+00 and 1.11E+00
- TR-FRET dose-response, normalized signal (SI Fig 11) (HsProRS; Log[inhibitor] (M) -9.000): 9.04E-01 and 9.68E-01 and 8.68E-01
- normalized TR-FRET ligand displacement signal, dose-response replicates (SI Fig 6) (HsProRS; Log[inhibitor] (M) -9.301): 1.03E+00 (2×) and 9.04E-01
- TR-FRET dose-response, normalized signal (SI Fig 11) (HsProRS; Log[inhibitor] (M) -9.301): 8.86E-01 and 9.16E-01 and 9.33E-01
